Earlier results on one substance are cited in patent publication US10858659B2, “Biosynthetic gene cluster of carrimycin” (SHENYANG FUYANG PHARMACEUTICAL TECHNOLOGY CO., LTD., priority 2015, dated 2020).

The conditions of series [1]: in vivo.

As to Carrimycin, the in-vivo retention time entry is on record as “long”. Also, under “in vivo”, the absolute bioavailability entry is “high”, the elimination half-life result is given as “long”, the “tissue concentration compared with blood plasma concentration” value is on record as “higher than blood plasma concentration” and the tissue distribution result was “wide”. Further, the tissue penetrability entry (in vivo) is “high”. The “oral administration absorption speed” value (in vivo, po) is “high”. Moreover, in series [1], the adverse reaction rate entry was “low”, the injury to livers result is recorded as “little” and the safety result is “good”.
